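Growth conditions: 96-well plates. Treatment: test compound, 48 hours, 5 concentrations. Analysis: linear interpolation between bracketing concentrations; unreached endpoints set to highest concentration. The concentration for 50% growth inhibition is given as GI50. TGI: concentration producing complete growth inhibition.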
Tests used:
Test in all cases: growth of human tumour cells (NCI), 48 h
HCT-15 colon = system: HCT-15 colon
SK-MEL-5 melanoma = system: SK-MEL-5 melanoma
IGROV1 ovarian = system: IGROV1 ovarian
SN12C renal = system: SN12C renal
LOX IMVI melanoma = system: LOX IMVI melanoma
OVCAR-5 ovarian = system: OVCAR-5 ovarian
OVCAR-8 ovarian = system: OVCAR-8 ovarian
MOLT-4 leukemia = system: MOLT-4 leukemia
ACHN renal = system: ACHN renal
SK-MEL-2 melanoma = system: SK-MEL-2 melanoma
U251 CNS = system: U251 CNS
COLO 205 colon = system: COLO 205 colon
DLD-1 colon = system: DLD-1 colon
LXFL 529 NSCLC = system: LXFL 529 NSCLC
HCC-2998 colon = system: HCC-2998 colon
786-0 renal = system: 786-0 renal
EKVX NSCLC = system: EKVX NSCLC
KM12 colon = system: KM12 colon
A549 NSCLC = system: A549 NSCLC
NCI-H23 lung = system: NCI-H23 lung
NCI-H460 lung = system: NCI-H460 lung
OVCAR-3 ovarian = system: OVCAR-3 ovarian
MALME-3M melanoma = system: MALME-3M melanoma
SNB-19 CNS = system: SNB-19 CNS
K-562 leukemia = system: K-562 leukemia
UACC-62 melanoma = system: UACC-62 melanoma
SW-620 colon = system: SW-620 colon
SF-268 CNS = system: SF-268 CNS
SF-295 CNS = system: SF-295 CNS
UO-31 renal = system: UO-31 renal
M14 melanoma = system: M14 melanoma
KM20L2 colon = system: KM20L2 colon
HOP-92 NSCLC = system: HOP-92 NSCLC
OVCAR-4 ovarian = system: OVCAR-4 ovarian
SNB-75 CNS = system: SNB-75 CNS
TK-10 renal = system: TK-10 renal
HCT-116 colon = system: HCT-116 colon
RPMI-8226 leukemia = system: RPMI-8226 leukemia
NCI-H522 lung = system: NCI-H522 lung
HT29 colon = system: HT29 colon
SK-OV-3 ovarian = system: SK-OV-3 ovarian
CCRF-CEM leukemia = system: CCRF-CEM leukemia
SF-539 CNS = system: SF-539 CNS
A498 renal = system: A498 renal
HOP-62 NSCLC = system: HOP-62 NSCLC
UACC-257 melanoma = system: UACC-257 melanoma
SNB-78 CNS = system: SNB-78 CNS
DMS 273 small cell lung = system: DMS 273 small cell lung
SK-MEL-28 melanoma = system: SK-MEL-28 melanoma
NCI-H226 lung = system: NCI-H226 lung
DMS 114 small cell lung = system: DMS 114 small cell lung
M19-MEL melanoma = system: M19-MEL melanoma
CAKI-1 renal = system: CAKI-1 renal
SR leukemia = system: SR leukemia
HL-60(TB) leukemia = system: HL-60(TB) leukemia

## CC(C)CC(=O)[O-].N.N.N.N.N.[Co+3].[O-][Cl+3]([O-])([O-])[O-]
HCT-15 colon
  GI50: > 100 µM
  TGI: > 100 µM
SK-MEL-5 melanoma
  GI50: > 100 µM
  TGI: > 100 µM
IGROV1 ovarian
  GI50: > 100 µM
  TGI: > 100 µM
SN12C renal
  GI50: > 100 µM
  TGI: > 100 µM
LOX IMVI melanoma
  GI50: > 100 µM
  TGI: > 100 µM
OVCAR-5 ovarian
  GI50: > 100 µM
  TGI: > 100 µM
OVCAR-8 ovarian
  GI50: > 100 µM
  TGI: > 100 µM
MOLT-4 leukemia
  GI50: 70.8 µM
  TGI: > 100 µM
ACHN renal
  GI50: > 100 µM
  TGI: > 100 µM
SK-MEL-2 melanoma
  GI50: > 100 µM
  TGI: > 100 µM
U251 CNS
  GI50: > 100 µM
  TGI: > 100 µM
COLO 205 colon
  GI50: > 100 µM
  TGI: > 100 µM
DLD-1 colon
  GI50: > 100 µM
  TGI: > 100 µM
LXFL 529 NSCLC
  GI50: > 100 µM
  TGI: > 100 µM
HCC-2998 colon
  GI50: > 100 µM
  TGI: > 100 µM
786-0 renal
  GI50: > 100 µM
  TGI: > 100 µM
EKVX NSCLC
  GI50: > 100 µM
  TGI: > 100 µM
KM12 colon
  GI50: > 100 µM
  TGI: > 100 µM
A549 NSCLC
  GI50: > 100 µM
  TGI: > 100 µM
NCI-H23 lung
  GI50: > 100 µM
  TGI: > 100 µM
NCI-H460 lung
  GI50: > 100 µM
  TGI: > 100 µM
OVCAR-3 ovarian
  GI50: > 100 µM
  TGI: > 100 µM
MALME-3M melanoma
  GI50: > 100 µM
  TGI: > 100 µM
SNB-19 CNS
  GI50: > 100 µM
  TGI: > 100 µM
K-562 leukemia
  GI50: > 100 µM
  TGI: > 100 µM
UACC-62 melanoma
  GI50: > 100 µM
  TGI: > 100 µM
SW-620 colon
  GI50: > 100 µM
  TGI: > 100 µM
SF-268 CNS
  GI50: > 100 µM
  TGI: > 100 µM
SF-295 CNS
  GI50: > 100 µM
  TGI: > 100 µM
UO-31 renal
  GI50: 85.7 µM
  TGI: > 100 µM
M14 melanoma
  GI50: > 100 µM
  TGI: > 100 µM
KM20L2 colon
  GI50: > 100 µM
  TGI: > 100 µM
HOP-92 NSCLC
  GI50: > 100 µM
  TGI: > 100 µM
OVCAR-4 ovarian
  GI50: > 100 µM
  TGI: > 100 µM
SNB-75 CNS
  GI50: 22 µM
  TGI: > 100 µM
TK-10 renal
  GI50: > 100 µM
  TGI: > 100 µM
HCT-116 colon
  GI50: > 100 µM
  TGI: > 100 µM
RPMI-8226 leukemia
  GI50: > 100 µM
  TGI: > 100 µM
NCI-H522 lung
  GI50: > 100 µM
  TGI: > 100 µM
HT29 colon
  GI50: > 100 µM
  TGI: > 100 µM
SK-OV-3 ovarian
  GI50: > 100 µM
  TGI: > 100 µM
CCRF-CEM leukemia
  GI50: > 100 µM
  TGI: > 100 µM
SF-539 CNS
  GI50: > 100 µM
  TGI: > 100 µM
A498 renal
  GI50: > 100 µM
  TGI: > 100 µM
HOP-62 NSCLC
  GI50: > 100 µM
  TGI: > 100 µM
UACC-257 melanoma
  GI50: > 100 µM
  TGI: > 100 µM
SNB-78 CNS
  GI50: > 100 µM
  TGI: > 100 µM
DMS 273 small cell lung
  GI50: > 100 µM
  TGI: > 100 µM
SK-MEL-28 melanoma
  GI50: > 100 µM
  TGI: > 100 µM

## Cc1ccc(-c2cc(=S)n(-c3ccccc3)c3nc(=S)n(-c4ccccc4)c(N)c23)cc1
HCT-15 colon
  TGI: > 100 µM
SK-MEL-5 melanoma
  TGI: > 100 µM
IGROV1 ovarian
  TGI: > 100 µM
OVCAR-5 ovarian
  TGI: > 100 µM
OVCAR-8 ovarian
  TGI: > 100 µM
MOLT-4 leukemia
  TGI: > 100 µM
ACHN renal
  TGI: > 100 µM
NCI-H226 lung
  TGI: > 100 µM
SK-MEL-2 melanoma
  TGI: > 100 µM
DMS 114 small cell lung
  TGI: > 100 µM
U251 CNS
  TGI: > 100 µM
COLO 205 colon
  TGI: > 100 µM
DLD-1 colon
  TGI: > 100 µM
LXFL 529 NSCLC
  TGI: > 100 µM
HCC-2998 colon
  TGI: > 100 µM
786-0 renal
  TGI: > 100 µM
KM12 colon
  TGI: > 100 µM
A549 NSCLC
  TGI: > 100 µM
NCI-H23 lung
  TGI: > 100 µM
NCI-H460 lung
  TGI: > 100 µM
OVCAR-3 ovarian
  TGI: > 100 µM
MALME-3M melanoma
  TGI: > 100 µM
SNB-19 CNS
  TGI: > 100 µM
K-562 leukemia
  TGI: > 100 µM
UACC-62 melanoma
  TGI: > 100 µM
SW-620 colon
  TGI: > 100 µM
SF-268 CNS
  TGI: > 100 µM
SF-295 CNS
  TGI: > 100 µM
UO-31 renal
  TGI: > 100 µM
M14 melanoma
  TGI: > 100 µM
KM20L2 colon
  TGI: > 100 µM
HOP-92 NSCLC
  TGI: > 100 µM
OVCAR-4 ovarian
  TGI: > 100 µM
SNB-75 CNS
  TGI: > 100 µM
TK-10 renal
  TGI: > 100 µM
HCT-116 colon
  TGI: > 100 µM
RPMI-8226 leukemia
  TGI: > 100 µM
NCI-H522 lung
  TGI: > 100 µM
HT29 colon
  TGI: > 100 µM
M19-MEL melanoma
  TGI: > 100 µM
CCRF-CEM leukemia
  TGI: > 100 µM
SF-539 CNS
  TGI: > 100 µM
CAKI-1 renal
  TGI: > 100 µM
HOP-62 NSCLC
  TGI: > 100 µM
UACC-257 melanoma
  TGI: > 100 µM
SR leukemia
  TGI: > 100 µM
HL-60(TB) leukemia
  TGI: > 100 µM
DMS 273 small cell lung
  TGI: > 100 µM
SK-MEL-28 melanoma
  TGI: > 100 µM
